Experimental data as given in article PMC6832134, “Discovery of Novel Integrase Inhibitors Acting outside the Active Site Through High-Throughput Screening” (Molecules, 2019).

Assays:
[1] = molecular target: T1, HIV-1 IN mutant G140S/Q148H (Human immunodeficiency virus type 1 group M subtype B, UniProt P12497, G1287S/Q1295H); test: Gel-based IN strand transfer assay, G140S/Q148H mutant; type: biochemical
T1 construct: RAL-resistant HIV-1 mutant integrases; made in house; host or cells: E. coli RosettaII
Experimental: (§1) IN reactions were carried out by adding drugs or an equivalent volume of 100% DMSO (dimethyl sulfoxide, used as the drug solvent) to a mixture of 20 nM duplex DNA (21T/21B) and 400 nM IN in 50 mM MOPS pH 7.2, 7.5 mM MgCl2, and 14 mM 2-mercaptoethanol. Reactions were performed at 37 °C for 2 h and quenched by addition of an equal volume of loading buffer [formamide containing 1% SDS (sodium dodecyl sulfate), 0.25% bromophenol blue, and xylene cyanol]. Reaction products were separated in 16% polyacrylamide denaturing sequencing gels. Dried gels were visualized using a Typhoon 8600 (GE Healthcare, Piscataway, NJ, USA). Densitometric analyses were performed using the ImageQuant 5.1 software from GE Healthcare. Data analyses (linear regression, IC50 determination, and standard deviation) were performed using Prism 6.05 software from GraphPad.

full-length IN (1–288) = molecular target: T2, full-length IN (1–288) (Human immunodeficiency virus type 1 group M subtype B, UniProt P12497); test: Schiff base IN-DNA crosslinking assay, full-length IN; type: binding, HIV-1
T2 construct: using full-length IN (1–288), the isolated catalytic core domain (CCD) (51–212); made in house; host or cells: E. coli RosettaII
Excerpt: To gain further evidence that NSC34931 interferes with DNA binding, and to determine the role of outer domains in this inhibition, we evaluated the ability of NSC34931 to inhibit the formation of IN-DNA crosslinks using our previously described Schiff base assay. Briefly, a deoxyuracyl nucleotide is incorporated in the DNA substrate to generate an abasic site via uracyl DNA glycosylase. IN forms a covalent complex (Schiff base), which can be stabilized by reduction with sodium borohydride (Figure 5A). Full-length IN, but also the isolated CCD or CTD domains, can crosslink DNA ([…]). Consistent with anisotropy data, NSC34931 suppresses the formation of IN-DNA crosslinks in the context of the full-length IN (Figure 5B, upper gel). Of note, the effective dose to inhibit this reaction is similar to that needed to inhibit 3′-P or ST (about 0.45 µM). In contrast, the IN CCD requires a 10 times higher concentration of compound to prevent DNA crosslinking, confirming that the NTD or the CTD are important for NSC34931 inhibition. Lastly, the same experiment was conducted with the isolated CTD (Figure 5B, lower gel).
Figure 5 Inhibition of IN-DNA binding by NSC34931. (A) Principle of the Schiff base crosslinking assay. An abasic site was introduced by uracil DNA glycosylase in the DNA substrate at the -12 position. […]

HIV-1 IN = molecular target: T3, HIV-1 IN (Human immunodeficiency virus type 1 group M subtype B, UniProt P12497); test: Gel-based IN 3'-processing assay; type: biochemical; settings: at least three independent experiments, read-out: In Vitro IC50 +/−SD, 3'-P
T3 construct: 250 nM of recombinant HIV-1 integrase; made in house; host or cells: E. coli RosettaII
Experimental: as §1

full-length IN = molecular target: T4, full-length IN (Human immunodeficiency virus type 1 group M subtype B, UniProt P12497); test: Disintegration reaction, full-length IN; type: biochemical, HIV-1; settings: branched substrate
T4 construct: using full-length IN (1–288), the isolated catalytic core domain (CCD) (51–212); made in house; host or cells: E. coli RosettaII
Excerpt: Conventional IN strand transfer inhibitors bind at the interface created by the protein, viral DNA, and two magnesium cations in the catalytic site of the enzyme. Because stilbene disulfonic acid derivatives inhibit both 3′-P and ST with a similar efficiency, they may act outside the IN catalytic site. To determine if IN domains other than the catalytic core domain (CCD) are involved in the inhibitory activity of NSC34931, we tested this compound on disintegration, the only IN-mediated reaction that can be catalyzed by the isolated CCD. Disintegration is equivalent to a reverse-ST reaction (Figure 3A). Using a branched substrate, the WT enzyme as well as the isolated CCD catalyzed disintegration with similar efficiency (Figure 3B). NSC34931 inhibited disintegration catalyzed by the full-length IN at concentrations above 4.1 µM (Figure 3B,C). However, NSC34931 was unable to inhibit disintegration catalyzed by the CCD at concentrations up to 37 µM (Figure 3B,C). These experiments indicate that the N-terminal domain (NTD) and/or the C-terminal domain (CTD) are essential for IN inhibition by NSC34931.
Figure 3 Inhibition of the disintegration reaction by NSC34931. (A) Schematic representation of the disintegration reaction. […]

O=S(=O)(O)c1cc(/N=N/c2cc(S(=O)(=O)O)c3ccccc3c2O)ccc1/C=C/c1ccc(/N=N/c2cc(S(=O)(=O)O)c3ccccc3c2O)cc1S(=O)(=O)O [NSC34931]
IC50 [1]: 120 nM | effective dose to inhibit IN-DNA crosslink formation (full-length IN (1–288)): about 0.45 µM | IC50 (HIV-1 IN): 320 ± 120 nM | concentrations inhibiting disintegration (full-length IN): above 4.1 µM
